In US12655116B2, “Substituted isophthalic acid diamides” (Bayer Aktiengesellschaft, priority 2020, dated 2026):

Experiments:
SETVI [1] = assay: Pre-emergence herbicidal action against SETVI; format: in vivo, Setaria viridis; settings: Setaria viridis, 504 h
Procedure, shortened: (§1)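 Visual rating at 3 weeks vs untreated pots; 0–100% scale, 100% = plants died. Treatment: aqueous WP/EC spray onto covering soil, 600–800 l/ha, 0.2% wetter, seeds in sandy loam.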

PHBPU [2] = assay: Post-emergence herbicidal action against PHBPU; format: in vivo, Pharbitis purpurea; settings: Ipomoea purpurea, 504 h
Procedure, shortened: (§2)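 Greenhouse pot plants in sandy loam were sprayed at the one-leaf stage, 2 to 3 weeks after sowing, with WP or EC formulations as aqueous suspension or emulsion (600 to 800 l/ha water, 0.2% wetting agent). About 3 weeks later, damage was scored visually against untreated controls as % action (100% = dead, 0% = like control).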

ABUTH [3] = assay: Pre-emergence herbicidal action against ABUTH; format: in vivo, Abutilon theophrasti; settings: Abutilon theophrasti, 504 h
Procedure, shortened: as §1

MATIN [4] = assay: Pre-emergence herbicidal action against MATIN; format: in vivo, Matricaria inodora; settings: Tripleurospermum inodorum, 504 h
Procedure, shortened: as §1

SETVI [5] = assay: Post-emergence herbicidal action against SETVI; format: in vivo, Setaria viridis; settings: Setaria viridis, 504 h
Procedure, shortened: as §2

VIOTR [6] = assay: Pre-emergence herbicidal action against VIOTR; format: in vivo, Viola tricolor; settings: Viola tricolor, 504 h
Procedure, shortened: as §1

POLCO = assay: Pre-emergence herbicidal action against POLCO; format: in vivo, Polygonum convolvulus; settings: Fallopia convolvulus, 504 h
Procedure, shortened: as §1

LOLRI = assay: Pre-emergence herbicidal action against LOLRI; format: in vivo, Lolium rigidum; settings: Lolium rigidum, 504 h, 80 g/ha
Procedure, shortened: as §1

AVEFA = assay: Pre-emergence herbicidal action against AVEFA; format: in vivo, Avena fatua; settings: Avena fatua, 504 h; 80 g/ha, pre-emergence
Procedure, shortened: as §1

DIGSA [7] = assay: Pre-emergence herbicidal action against DIGSA; format: in vivo, Digitaria sanguinalis; settings: Digitaria sanguinalis, 504 h, dosage 80 g/ha
Procedure, shortened: as §1

ECHCG [8] = assay: Pre-emergence herbicidal action against ECHCG; format: in vivo, Echinochloa crus-galli; settings: Echinochloa crus-galli, 504 h
Procedure, shortened: as §1

AMARE [9] = assay: Post-emergence herbicidal action against AMARE; format: in vivo, Amaranthus retroflexus; settings: Amaranthus retroflexus, 504 h, 20 g/ha, visual assessment about 3 weeks after treatment, 100% = plants have died, 0% = like control plants
Procedure, shortened: as §2

AMARE [10] = assay: Pre-emergence herbicidal action against AMARE; format: in vivo, Amaranthus retroflexus; settings: Amaranthus retroflexus, 504 h, scored visually after 3 weeks vs untreated controls, 100% = plants have died, 0% = like control plants
Procedure, shortened: as §1

VERPE [11] = assay: Pre-emergence herbicidal action against VERPE; format: in vivo, Veronica persica; settings: Veronica persica, 504 h
Procedure, shortened: as §1

ECHCG [12] = assay: Post-emergence herbicidal action against ECHCG; format: in vivo, Echinochloa crus-galli; settings: Echinochloa crus-galli, 504 h, dosage 20 g/ha
Procedure, shortened: as §2

MATIN [13] = assay: Post-emergence herbicidal action against MATIN; format: in vivo, Matricaria inodora; settings: Tripleurospermum inodorum, 504 h
Procedure, shortened: as §2

ALOMY [14] = assay: Pre-emergence herbicidal action against ALOMY; format: in vivo, Alopecurus myosuroides; settings: Alopecurus myosuroides, 504 h, pre-emergence
Procedure, shortened: as §1

ALOMY [15] = assay: Post-emergence herbicidal action against ALOMY; format: in vivo, Alopecurus myosuroides; settings: Alopecurus myosuroides, 504 h, visual assessment about 3 weeks after treatment vs untreated controls
Procedure, shortened: as §2

ABUTH [16] = assay: Post-emergence herbicidal action against ABUTH; format: in vivo, Abutilon theophrasti; settings: Abutilon theophrasti, 504 h, visual assessment about 3 weeks after treatment vs untreated controls
Procedure, shortened: as §2

DIGSA [17] = assay: Post-emergence herbicidal action against DIGSA; format: in vivo, Digitaria sanguinalis; settings: Digitaria sanguinalis, 504 h
Procedure, shortened: as §2

VIOTR [18] = assay: Post-emergence herbicidal action against VIOTR; format: in vivo, Viola tricolor; settings: Viola tricolor, 504 h, 20 g/ha
Procedure, shortened: as §2

VERPE [19] = assay: Post-emergence herbicidal action against VERPE; format: in vivo, Veronica persica; settings: Veronica persica, 504 h
Procedure, shortened: as §2

PHBPU [20] = assay: Pre-emergence herbicidal action against PHBPU; format: in vivo, Pharbitis purpurea; settings: Ipomoea purpurea, 504 h, dosage 80 g/ha
Procedure, shortened: as §1

[21] = 80 g/ha, scored visually after 3 weeks vs untreated controls (100% = plants have died, 0% = like control plants)

For `CCNC(=O)c1c(C(F)(F)C(F)(F)F)ccc(C(=O)Nc2nnnn2C)c1Cl` [Example 1-166], the pest or weed control at 20 g/ha (SETVI [1]; dosage 20 g/ha) was 80%, the pest or weed control at 80 g/ha (SETVI [1]; dosage 80 g/ha) was 100% and the pest or weed control at 5 g/ha (PHBPU [2]; dosage 5 g/ha) was 80%. For the same compound, the pest or weed control at 20 g/ha (PHBPU [2]; dosage 20 g/ha) was 90%, the pest or weed control at 80 g/ha (ABUTH [3]; [21]) was 100% and the pest or weed control at 20 g/ha (ABUTH [3]; dosage 20 g/ha, scored visually after 3 weeks vs untreated controls, 100% = plants have died, 0% = like control plants, read-out: Pre-emergence action against ABUTH (herbicidal activity in percent)) was 90%. For the same compound, the pest or weed control at 20 g/ha (MATIN [4]; dosage 20 g/ha) was 100%, the pest or weed control at 80 g/ha (MATIN [4]; dosage 80 g/ha) was 100% and the pest or weed control at 5 g/ha (SETVI [5]; dosage 5 g/ha) was 90%. The pest or weed control at 20 g/ha (SETVI [5]; dosage 20 g/ha) was 90%, the pest or weed control at 20 g/ha (VIOTR [6]; dosage 20 g/ha) was 100% and the pest or weed control at 80 g/ha (VIOTR [6]; dosage 80 g/ha) was 100%. The pest or weed control at 20 g/ha (POLCO; dosage 20 g/ha) was 100%, the pest or weed control at 80 g/ha (POLCO; dosage 80 g/ha) was 100% and the pest or weed control at 80 g/ha (LOLRI) was 80%. The pest or weed control at 80 g/ha (AVEFA) was 100%, the pest or weed control at 80 g/ha (DIGSA [7]) was 90% and the pest or weed control at 20 g/ha (ECHCG [8]; 20 g/ha) was 90%. For the same compound, the pest or weed control at 80 g/ha (ECHCG [8]; 80 g/ha) was 100%, the pest or weed control at 20 g/ha (AMARE [9]) was 90% and the pest or weed control at 20 g/ha (AMARE [10]; 20 g/ha) was 100%. The pest or weed control at 80 g/ha (AMARE [10]; 80 g/ha) was 100%, the pest or weed control at 20 g/ha (VERPE [11]; dosage 20 g/ha) was 80% and the pest or weed control at 80 g/ha (VERPE [11]; dosage 80 g/ha) was 100%. For the same compound, the pest or weed control at 20 g/ha (ECHCG [12]) was 90%, the pest or weed control at 5 g/ha (MATIN [13]; dosage 5 g/ha) was 80% and the pest or weed control at 20 g/ha (MATIN [13]; dosage 20 g/ha) was 80%. It also gave a pest or weed control at 80 g/ha (ALOMY [14]; [21]) of 100%, a pest or weed control at 20 g/ha (ALOMY [14]; 20 g/ha, scored visually after 3 weeks, 100% = plants have died, 0% = like control plants) of 90% and a pest or weed control at 5 g/ha (ALOMY [15]; dosage 5 g/ha) of 80%. For the same compound, the pest or weed control at 20 g/ha (ALOMY [15]; dosage 20 g/ha) was 90%, the pest or weed control at 5 g/ha (ABUTH [16]; dosage 5 g/ha) was 90% and the pest or weed control at 20 g/ha (ABUTH [16]; dosage 20 g/ha) was 90%. For the same compound, the pest or weed control at 5 g/ha (DIGSA [17]; 5 g/ha) was 90%, the pest or weed control at 20 g/ha (DIGSA [17]; 20 g/ha) was 90% and the pest or weed control at 20 g/ha (VIOTR [18]) was 80%. For the same compound, the pest or weed control at 5 g/ha (VERPE [19]; 5 g/ha) was 80%, the pest or weed control at 20 g/ha (VERPE [19]; 20 g/ha) was 90% and the pest or weed control at 80 g/ha (PHBPU [20]) was 80%.
